Experimental findings from PMC10673369, “Preliminary SAR of Novel Pleuromutilin–Polyamine Conjugates” (Microorganisms, 2023) are described below.

SMILES strings stand for the structures.

The subject of experiment [1] is S. aureus ATCC 25923. The experiment in a line: Real-time growth inhibition curves, S. aureus. It counts as cell-based. To be noted: optical density during 18 h culturing. As for the experimental part:
Real-time growth curves were determined using reported protocols (see Supplementary File).
Further investigation is required to determine the factors leading to the differences observed in the sub-MIC growth curves for the two compounds.
(§1) Briefly, restoring enhancer concentrations were determined with an inoculum of 5x10^5 CFU in 200 µL of MHB containing two-fold serial dilutions of each derivative in the presence of doxycycline at 4.5 […]
(§2) The lowest concentration of the polyamine
(§3) These measurements were independently repeated in triplicate.
(§4) Outer membrane permeabilization was measured using nitrocefin as a chromogenic substrate of periplasmic β-lactamase. […] Nitrocefin hydrolysis was monitored spectrophotometrically by measuring the increase in absorbance at 490 nm. […]
(§5) HEK293 cells were counted manually in a Neubauer hemocytometer and plated at a density of 5,000 cells/well into each well of the 384-well plates containing the 25x (2 µL) concentrated compounds [26,27]. […]
(§6) To measure cytotoxicity, 5 µL (equals 100 µM final) of resazurin was added to each well after incubation and incubated for further 3 h at 37 °C with 5% CO2. After the final incubation, fluorescence intensity […]
reader. […] The concentration-dependent percentage cytotoxicity was fitted to a dose–response function (using Pipeline Pilot) and CC50 values were determined. […]

The test system of a further experiment is P. aeruginosa PAO1. The experiment in a line: Nitrocefin hydrolysis assay (outer membrane permeabilization). The following applies: polymyxin B at 98.3 μM ([…]). It counts as cell-based. As for the experimental part: Nitrocefin assays were conducted using reported protocols (see Supplementary File).
We also examined the ability of 9e to act as membrane disruptor of the Gram-negative bacteria P. aeruginosa PAO1 (Figure 5), using a nitrocefin colorimetric assay. This assay makes use of a chromogenic cephalosporin derivative, which in the presence of an outer membrane disruptor gains entry to the periplasm, where upon the action of β-lactamases leads to substrate hydrolysis with a detectable color change from yellow to red.
as §1, §2, §3, §4, §5, §6
reader. […] The concentration-dependent percentage cytotoxicity was fitted to a dose–response function (using Pipeline Pilot) and CC50 values were determined.
Human whole blood was washed three times with three volumes of 0.9% NaCl and then resuspended in the same solution to a concentration of 0.5 x 10^8 cells/mL, as determined by the manual cell count in a Neubauer hemocytometer. […] Hemolysis was determined by measuring the supernatant absorbance at […] (OD405). The absorbance was measured using a Tecan M1000 Pro monochromator plate reader. […]

Experiment [2] has as its system S. aureus ATCC 25923. The experiment in a line: ATP efflux assay, S. aureus. It counts as cell-based, Staphylococcus aureus. To be noted: compound at 100 µg/mL. The method, then: (§7) ATP efflux assays were conducted using reported protocols (see Supplementary File).
(§8) The mechanism of antibiotic action of 9e towards the Gram-positive bacterium Staphylococcus aureus was attributed to its ability to disrupt the bacterial membrane and cause the release of intracellular ATP. The test organisms, being S. aureus ATCC 25923 and MRSA, were briefly exposed to 9e at a single dose of 100 µg/mL, with the leakage of ATP determined by the use of a bioluminescence assay (Figure 4). […] Nevertheless, a 40% level of ATP release is detrimental to the survival of the bacteria. After 3 min, it will be clear that the bacteria will be killed.
(§9) 2.9 ATP efflux measurement
(§10) A solution of the compound was prepared in twice-distilled water at a fixed concentration of 100 µg/mL. The different Gram-positive suspensions were prepared in MH II broth and were incubated at 37 °C. […] Subsequently, 50 µL of Luceferin–Luceferase reagent (Yelen, France) was added to the mixture, and the luminescent signal was quantified with an Infinite M200 microplate reader (Tecan, Männedorf, Switzerland) for five seconds. ATP concentration was quantified by internal sample addition. Squalamine (100 µg/mL) was used as a positive control to quantify the maximum level of ATP efflux and water as the negative control. […]

A further experiment concerns MRSA. The experiment in a line: ATP efflux assay, MRSA. It counts as cell-based, methicillin-resistant S. aureus. The following applies: compound at 100 µg/mL. As for the experimental part: as §7, §8, §9, §10

As to `C=C[C@]1(C)C[C@@H](OC(=O)CSCCN(CC)CC)[C@]2(C)[C@H](C)CC[C@]3(CCC(=O)[C@H]32)[C@@H](C)[C@@H]1O` [Compound 2, Tiamulin, reference compound], the “Real-time bacterial growth inhibition” value in the experiment with S. aureus ATCC 25923 [1] is on record as “inhibited the growth”. The “Outer membrane perturbation (nitrocefin hydrolysis)” value with P. aeruginosa PAO1 is “failing to exhibit any detectable membrane perturbation”.
`C=C[C@]1(C)C[C@@H](OC(=O)CNCCCNCCCCCCCCCCNCCCNCC(=O)O[C@@H]2C[C@@](C)(C=C)[C@@H](O)[C@H](C)[C@]34CCC(=O)[C@H]3[C@@]2(C)[C@H](C)CC4)[C@]2(C)[C@H](C)CC[C@]3(CCC(=O)[C@H]32)[C@@H](C)[C@@H]1O.O=C(O)C(F)(F)F.O=C(O)C(F)(F)F.O=C(O)C(F)(F)F.O=C(O)C(F)(F)F` [Compound 9e, N^1,N^1′-(Decane-1,10-diyl)bis(N^3-(2-(((3aR,4R,5R,7S,8S,9R,9aS,12R)-8-hydroxy-4,7,9,12-tetramethyl-3-oxo-7-vinyldecahydro-4,9a-propanocyclopenta [8]annulen-5-yl)oxy)-2-oxoethyl)propane-1,3-diaminium) 2,2,2-trifluoroacetate]: the “Real-time bacterial growth inhibition” value in the experiment with S. aureus ATCC 25923 [1] is listed as “inhibited the growth”. Besides, the “ATP release relative to positive control squalamine” value with S. aureus ATCC 25923 [2] and in the experiment with MRSA was 40% throughout. Also, in the experiment with P. aeruginosa PAO1, the “Outer membrane perturbation (nitrocefin hydrolysis)” value was “inactive”.
